{
  "source": "patent US20060003985A1",
  "about": "“Enhancement of sleep with t-type calcium channel antagonists” (priority 2002, published 2006)",
  "test_system": "Sprague Dawley rats",
  "test": "Rat sleep study with ECoG/EMG telemetry (sleep stage scoring)",
  "type": "in vivo",
  "details": "averaged over seven nights",
  "text": "This study examined the effects of the T-type calcium channel antagonist Compound A (6-chloro-3,4-dihydro-3-ethyl-4-phenyl-4-ethyl-2(1H)-quinazolinone; PCT WO 93/04047) on sleep by using electrocorticogram (ECoG) or electroencephalographic (EEG) measures to determine the efficacy of the T-type calcium channel antagonistin the altering the states of arousal or sleep.\nEight adult male Sprague Dawley rats (450-550 g; Taconic Farms, Germantown, N.Y.) were subcutaneously implanted with telemetric physiologic monitors (Model F50-EET; Data Sciences International, Arden Hills, Minn.) that were used to simultaneously record both the electrocorticogram (ECoG) and electromyographic (EMG) activities. […]\nFollowing the completion of data collection, all data were scored with automated sleep stage analysis software, Somnologica (Medcare Co.; Buffalo, N.Y.). […] Active wake was assigned to the epoch when movement of the animal was detected within the cage, or when there was an active EMG signal and the EEG consisted of alpha and beta frequency activity. An epoch was scored as light sleep when there was no movement activity, the EMG was moderately active and the EEG consisted of either theta or theta with less than 50% of the epoch showing delta activity. Delta sleep was scored when there was no movement, reduced EMG activity, and the EEG consisted of more than 50% delta wave activity (i.e. 0.5 to 4 Hz). […]",
  "data": [
    {"smiles": "CCN1C(=O)Nc2ccc(Cl)cc2C1(CC)c1ccccc1", "note": "(centres unmarked) [Compound A, 6-chloro-3,4-dihydro-3-ethyl-4-phenyl-4-ethyl-2(1H)-quinazolinone]", "values": [
      {"measurement": "entries into awake relative to vehicle (sleep fragmentation)", "setting": "FIG. 1, 30 minute bins", "value": "reduced the entries into awake relative to vehicle"},
      {"measurement": "wake duration relative to vehicle", "setting": "FIG. 2, 30 minute bins", "value": "reduced the wake duration relative to vehicle"}
    ]}
  ]
}
